Data published in US12240844B2 (Voronoi, Inc., priority 2019, dated 2025).

Legend:
[1] = tested on: THP-1; assay: THP-1 GI50 (Table 4, method not given); format: cell-based; details: Homo sapiens; THP-1 cells
[2] = target: T1, LRRK2, LRRK2 (G2019S), DYRK1, CLK1 and TTK kinases (Homo sapiens, UniProt P49759); assay: Enzyme IC50 by Kinase HotSpot service (Reaction Biology Corporation), values marked with *; format: biochemical; details: CLK1, ATP 10 uM
T1 construct: CLK1 IC50 (marked with *); other: CLK1; Kinase HotSpot service (Reaction Biology), ATP 10 uM
T1 sequence (P49759 whole entry, stated change not applied): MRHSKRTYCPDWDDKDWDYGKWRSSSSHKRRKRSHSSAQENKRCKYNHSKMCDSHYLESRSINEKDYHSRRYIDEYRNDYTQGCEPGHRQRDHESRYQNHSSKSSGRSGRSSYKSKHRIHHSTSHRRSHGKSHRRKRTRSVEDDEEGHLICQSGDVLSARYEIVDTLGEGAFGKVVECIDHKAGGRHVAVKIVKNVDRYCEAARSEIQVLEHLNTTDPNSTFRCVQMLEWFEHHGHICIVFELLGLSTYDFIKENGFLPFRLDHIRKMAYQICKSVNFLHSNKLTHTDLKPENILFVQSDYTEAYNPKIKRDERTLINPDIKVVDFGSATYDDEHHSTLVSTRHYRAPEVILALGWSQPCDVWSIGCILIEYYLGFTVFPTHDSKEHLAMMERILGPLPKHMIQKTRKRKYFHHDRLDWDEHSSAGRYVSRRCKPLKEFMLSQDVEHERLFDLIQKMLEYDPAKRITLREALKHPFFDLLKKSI
Summary of the method: (§1)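 Radiometric-service kinase assays (Reaction Biology HotSpot protocol) run at 10 uM ATP under uniform conditions. Compounds tested as 3-fold dilution series from a top concentration of […] to give IC50.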

[3] = target: T2, LRRK2, LRRK2 (G2019S), DYRK1, CLK1 and TTK kinases (Homo sapiens, UniProt Q5S007); assay: as above; format: biochemical; details: LRRK2, ATP 10 uM
T2 construct: LRRK2 IC50 (marked with *); other: LRRK2; Kinase HotSpot service (Reaction Biology), ATP 10 uM
T2 sequence (Q5S007 whole entry G2019S): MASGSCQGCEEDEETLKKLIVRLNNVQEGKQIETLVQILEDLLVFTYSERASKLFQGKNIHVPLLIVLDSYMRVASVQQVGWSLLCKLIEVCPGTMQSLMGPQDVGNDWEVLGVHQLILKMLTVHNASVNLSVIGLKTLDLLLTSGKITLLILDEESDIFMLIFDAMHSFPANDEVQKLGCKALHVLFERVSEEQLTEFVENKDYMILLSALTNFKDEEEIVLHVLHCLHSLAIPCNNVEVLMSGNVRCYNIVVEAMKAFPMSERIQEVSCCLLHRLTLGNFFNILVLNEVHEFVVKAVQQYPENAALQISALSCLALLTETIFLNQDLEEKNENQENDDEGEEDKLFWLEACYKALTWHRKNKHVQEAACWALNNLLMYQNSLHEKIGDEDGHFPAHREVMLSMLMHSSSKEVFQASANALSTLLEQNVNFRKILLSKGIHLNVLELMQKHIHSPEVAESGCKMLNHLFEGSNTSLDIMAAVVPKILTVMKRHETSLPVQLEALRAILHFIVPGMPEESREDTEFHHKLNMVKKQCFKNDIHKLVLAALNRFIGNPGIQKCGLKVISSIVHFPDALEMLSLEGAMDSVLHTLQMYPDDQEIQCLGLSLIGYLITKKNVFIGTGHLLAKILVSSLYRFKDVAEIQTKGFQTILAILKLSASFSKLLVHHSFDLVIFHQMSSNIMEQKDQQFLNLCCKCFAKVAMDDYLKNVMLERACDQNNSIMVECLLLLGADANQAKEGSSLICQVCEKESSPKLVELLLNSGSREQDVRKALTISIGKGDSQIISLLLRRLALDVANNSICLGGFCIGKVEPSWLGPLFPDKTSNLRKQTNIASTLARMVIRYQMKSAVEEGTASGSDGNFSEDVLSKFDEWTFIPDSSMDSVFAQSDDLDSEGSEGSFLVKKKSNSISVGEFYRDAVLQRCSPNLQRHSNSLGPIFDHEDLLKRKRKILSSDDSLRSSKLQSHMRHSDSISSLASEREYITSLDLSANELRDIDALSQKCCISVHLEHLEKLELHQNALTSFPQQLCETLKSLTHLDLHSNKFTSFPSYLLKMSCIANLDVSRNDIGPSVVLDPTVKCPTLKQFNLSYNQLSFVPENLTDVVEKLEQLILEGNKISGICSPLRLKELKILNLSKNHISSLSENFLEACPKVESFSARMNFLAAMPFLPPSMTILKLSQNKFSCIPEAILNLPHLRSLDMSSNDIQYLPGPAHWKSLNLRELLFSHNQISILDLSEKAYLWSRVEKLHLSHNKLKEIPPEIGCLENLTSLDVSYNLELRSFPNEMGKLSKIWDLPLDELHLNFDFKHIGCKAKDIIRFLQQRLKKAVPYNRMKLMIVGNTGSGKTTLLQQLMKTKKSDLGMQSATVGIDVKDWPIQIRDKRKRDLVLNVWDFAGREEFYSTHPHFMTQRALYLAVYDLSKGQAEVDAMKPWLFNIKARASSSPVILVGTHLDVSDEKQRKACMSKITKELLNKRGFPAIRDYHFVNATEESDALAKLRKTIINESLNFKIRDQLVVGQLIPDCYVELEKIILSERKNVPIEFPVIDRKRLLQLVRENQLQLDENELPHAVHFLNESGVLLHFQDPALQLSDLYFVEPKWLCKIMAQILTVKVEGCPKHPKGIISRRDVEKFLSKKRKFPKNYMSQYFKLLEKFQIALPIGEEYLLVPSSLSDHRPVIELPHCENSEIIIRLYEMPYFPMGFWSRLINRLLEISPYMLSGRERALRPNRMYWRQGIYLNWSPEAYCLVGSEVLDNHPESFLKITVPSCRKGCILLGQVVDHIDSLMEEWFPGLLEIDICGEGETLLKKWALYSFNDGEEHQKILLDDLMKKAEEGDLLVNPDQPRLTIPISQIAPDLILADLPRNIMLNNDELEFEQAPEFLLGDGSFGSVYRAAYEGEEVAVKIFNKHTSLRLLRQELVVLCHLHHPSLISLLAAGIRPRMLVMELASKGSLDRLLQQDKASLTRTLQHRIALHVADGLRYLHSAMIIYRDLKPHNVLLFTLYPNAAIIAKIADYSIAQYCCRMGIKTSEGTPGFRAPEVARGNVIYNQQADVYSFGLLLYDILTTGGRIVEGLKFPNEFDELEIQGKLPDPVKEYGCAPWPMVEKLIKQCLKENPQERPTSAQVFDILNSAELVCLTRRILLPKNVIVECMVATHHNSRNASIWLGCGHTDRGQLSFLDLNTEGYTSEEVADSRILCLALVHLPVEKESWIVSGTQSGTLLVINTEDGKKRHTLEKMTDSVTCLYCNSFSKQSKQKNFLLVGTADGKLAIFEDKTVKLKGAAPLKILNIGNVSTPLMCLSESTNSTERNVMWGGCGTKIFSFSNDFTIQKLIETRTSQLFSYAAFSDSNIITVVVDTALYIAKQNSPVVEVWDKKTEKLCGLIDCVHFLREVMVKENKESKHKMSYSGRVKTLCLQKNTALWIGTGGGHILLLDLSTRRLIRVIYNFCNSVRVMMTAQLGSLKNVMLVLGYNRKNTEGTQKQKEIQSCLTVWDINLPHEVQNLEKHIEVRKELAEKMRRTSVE
Summary of the method: as §1

Row | GI50 [1] [nM] | IC50 [2] [nM] | IC50 [3] [nM] | SMILES
1 | 16300 | – | – | CCNc1cc(Nc2ccc(P3(=O)CCN(C(C)=O)CC3)cc2OC)nc2[nH]cc(C(F)(F)F)c12 [Example 42, 1-(4-(4-((4-(ethylamino)-3-(trifluoromethyl)-1H-pyrrolo[2,3-b]pyridin-6-yl)amino)-3-methoxyphenyl)-4-oxido-1,4-azaphosphinan-1-yl)ethan-1-one]
2 | – | < 100 | < 100 | CNc1cc(Nc2ccc(S(=O)(=O)N3CCC(N4CCOCC4)CC3)cc2OC)nc2[nH]cc(C(F)(F)F)c12 [Example 184, N^6-(2-methoxy-4-((4-morpholinopiperidin-1-yl)sulfonyl)phenyl)-N^4-methyl-3-(trifluoromethyl)-1H-pyrrolo[2,3-b]pyridine-4,6-diamine]
3 | 9390 | – | – | COCCNc1cc(Nc2ccc(P3(=O)CCN(C4CC4)CC3)cc2OC)nc2[nH]cc(C(F)(F)F)c12 [Example 207, 1-cyclopropyl-4-(3-methoxy-4-((4-((2-methoxyethyl)amino)-3-(trifluoromethyl)-1H-pyrrolo[2,3-b]pyridin-6-yl)amino)phenyl)-1,4-azaphosphinane 4-oxide]

Continued, molecule first:

Row | SMILES | GI50 [1] [nM] | IC50 [2] [nM] | IC50 [3] [nM]
4 | CCNc1cc(Nc2ccc(C(=O)N3CCC(N4CCOCC4)CC3)c3c2OCO3)nc2[nH]cc(C(F)(F)F)c12 [Example 37, (7-((4-(ethylamino)-3-(trifluoromethyl)-1H-pyrrolo[2,3-b]pyridin-6-yl)amino)benzo[d][1,3]dioxol-4-yl)(4-morpholinopiperidin-1-yl)methanone] | 14400 | – | –
5 | CCNc1cc(Nc2ccc(C(=O)N3C[C@@H]4C[C@H]3CO4)c3c2OCCO3)nc2[nH]cc(C(F)(F)F)c12 [Example 44, ((1S,4S)-2-oxa-5-azabicyclo[2.2.1]heptan-5-yl)(8-((4-(ethylamino)-3-(trifluoromethyl)-1H-pyrrolo[2,3-b]pyridin-6-yl)amino)-2,3-dihydrobenzo[b] [1,4]dioxin-5-yl)methanone] | 146000 | – | –
6 | O=C(c1ccc(Nc2cc(C3CC3)c3c(C(F)(F)F)c[nH]c3n2)c2c1CCO2)N1CCOCC1 [Example 91, (7-((4-cyclopropyl-3-(trifluoromethyl)-1H-pyrrolo[2,3-b]pyridin-6-yl)amino)-2,3-dihydrobenzofuran-4-yl)(morpholino) methanone] | – | < 100 | –
7 | O=C(c1ccc(Nc2cc(C3CC3)c3c(C(F)(F)F)c[nH]c3n2)c2c1CCO2)N1CC[C@H](N2CCOCC2)C1 [Example 237, (S)-(7-((4-cyclopropyl-3-(trifluoromethyl)-1H-pyrrolo[2,3-b]pyridin-6-yl)amino)-2,3-dihydrobenzofuran-4-yl)(3-morpholinopyrrolidin-1-yl)methanone] | – | < 100 | 101 to 300
8 | O=C(c1ccc(Nc2cc(C3CC3)c3c(C(F)(F)F)c[nH]c3n2)c2c1CCO2)N1CC[C@@H](N2CCOCC2)C1 [Example 238, (R)-(7-((4-cyclopropyl-3-(trifluoromethyl)-1H-pyrrolo[2,3-b]pyridin-6-yl)amino)-2,3-dihydrobenzofuran-4-yl)(3-morpholinopyrrolidin-1-yl)methanone] | – | < 100 | 101 to 300
